Source: patent US20140045873A1, “NOVEL MICROBIOCIDES” (SYNGENTA PARTICIPATIONS AG, priority 2010, published 2014)
Like-named read-outs stand apart in the source and are kept apart here.

Legend:
[1] = tested on: Puccinia recondita f. sp. tritici; settings: in Triticum aestivum, foliar, read-out: control of Puccinia recondita f. sp. tritici (percent disease control compared to untreated)
[2] = tested on: Botryotinia fuckeliana (Botrytis cinerea); test: Botryotinia fuckeliana (Botrytis cinerea) / liquid culture (gray mould); assay type: cell-based; settings: Vogels broth, 24° C., 3-4 days after application, read-out: control of Botryotinia fuckeliana (inhibition of growth, photometric)
Description: Botryotinia Fuckeliana (Botrytis cinerea)/Liquid Culture (Gray Mould): Conidia of the fungus from cryogenic storage were directly mixed into nutrient broth (Vogels broth). […].45

[3] = tested on: Monographella nivalis (Microdochium nivale); test: Monographella nivalis (Microdochium nivale) / liquid culture (foot rot cereals); assay type: cell-based; settings: PDB, 24° C., 4-5 days after application, read-out: control of Monographella nivalis (inhibition of growth, photometric)
[4] = tested on: Mycosphaerella graminicola (Septoria tritici); test: Mycosphaerella graminicola (Septoria tritici) / liquid culture (Septoria blotch); assay type: cell-based; settings: Zymoseptoria tritici; 200 ppm, liquid culture, PDB, 24° C., 4-5 days after application; read-out: control of Mycosphaerella graminicola (inhibition of growth, photometric)
[5] = tested on: Puccinia recondita f. sp. tritici; settings: in Triticum aestivum, foliar, read-out: control of Puccinia recondita f. sp. tritici (percent disease control compared to untreated); remark: listed apart in the source
[6] = tested on: Glomerella lagenarium (Colletotrichum lagenarium); test: Glomerella lagenarium (Colletotrichum lagenarium) / liquid culture (anthracnose); assay type: cell-based; settings: Colletotrichum orbiculare; 200 ppm, liquid culture, PDB, 24° C., 3-4 days after application; read-out: control of Glomerella lagenarium (inhibition of growth, photometric)
[7] = tested on: Mycosphaerella arachidis (Cercospora arachidicola); test: Mycosphaerella arachidis (Cercospora arachidicola) / liquid culture (early leaf spot); assay type: cell-based; settings: 200 ppm, liquid culture, PDB, 24° C., 4-5 days after application, read-out: control of Mycosphaerella arachidis (inhibition of growth, photometric)
Pyrenophora teres = settings: in Hordeum vulgare, foliar, read-out: control of Pyrenophora teres (disease control compared to untreated)
[8] = tested on: Thanatephorus cucumeris (Rhizoctonia solani); settings: read-out: control of Thanatephorus cucumeris (inhibition of growth, photometric)
[9] = tested on: Phaeosphaeria nodorum (Septoria nodorum); settings: Parastagonospora nodorum, in Triticum aestivum, foliar, read-out: control of Phaeosphaeria nodorum (percent disease control compared to untreated)
Gaeumannomyces graminis = Gaeumannomyces graminis / liquid culture (take-all of cereals); assay type: cell-based; settings: 200 ppm, liquid culture, PDB, 24° C., 4-5 days after application, read-out: control of Gaeumannomyces graminis (inhibition of growth, photometric)
Pythium ultimum = Pythium ultimum / liquid culture (seedling damping off); assay type: cell-based; settings: Globisporangium ultimum, potato dextrose broth, 24° C., 2-3 days after application, read-out: control of Pythium ultimum (inhibition of growth, photometric)
Alternaria solani = Alternaria solani / tomato / leaf disc (early blight); assay type: in vivo; settings: foliar, tomato leaf disks cv. Baby, inoculated 2 days after application, assessed 5-7 days after application, read-out: control of Alternaria solani (percent disease control compared to untreated)
Procedure: The inoculated leaf disks were incubated at 23° C./21° C. […].44

In the case of `COc1cc(C)nc(-c2cccc(CCCO/N=C(\C)c3cccc(C)n3)n2)c1` [P.11, 1-(6-methyl-pyridin-2-yl)-ethanone-O-[3-(4′-methoxy-6′-methyl-[2,2]bipyridinyl-6-yl)-propyl]-oxime], the pest or weed control at 200 ppm [1] is reported as no less than 80%, the melting point is reported as 84 to 86 °C and the inhibition at 200 ppm [2] is reported as no less than 80%. For the same compound, the inhibition at 200 ppm [3] was no less than 80%, the inhibition at 200 ppm [4] was no less than 80% and the pest or weed control at 200 ppm [5] was no less than 80%. The inhibition at 200 ppm [6] was no less than 80%, the inhibition at 200 ppm [7] was no less than 80% and the pest or weed control at 200 ppm (Pyrenophora teres) was no less than 80%. The inhibition at 200 ppm [8] was no less than 80%, the pest or weed control at 200 ppm [9] was no less than 80% and the inhibition at 200 ppm (Gaeumannomyces graminis) was no less than 80%.
`C/C(=N\OCCCc1cccc(-c2cc(Cl)cc(C)n2)n1)c1cccc(C)n1` [P.16, 1-(6-methyl-pyridin-2-yl)-ethanone-O-[3-(4′-chloro-6′-methyl-[2,2′]bipyridinyl-6-yl)-propyl]-oxime] gave a pest or weed control at 200 ppm [1] of no less than 80%, a melting point of 53 to 54 °C and an inhibition at 200 ppm [2] of no less than 80%. The inhibition at 200 ppm [4] was no less than 80%, the pest or weed control at 200 ppm [5] was no less than 80% and the inhibition at 200 ppm [6] was no less than 80%. The inhibition at 200 ppm [7] was no less than 80%, the pest or weed control at 200 ppm (Pyrenophora teres) was no less than 80% and the inhibition at 200 ppm [8] was no less than 80%. For the same compound, the pest or weed control at 200 ppm [9] was no less than 80% and the inhibition at 200 ppm (Gaeumannomyces graminis) was no less than 80%.
For `CSc1cc(C)nc(-c2cccc(CCCO/N=C(\C)c3cccc(C)n3)n2)c1` [P.17], the pest or weed control at 200 ppm [1] was no less than 80%, the melting point was 76 to 77 °C and the inhibition at 200 ppm (Pythium ultimum) was no less than 80%. It also gave an inhibition at 200 ppm [3] of no less than 80%, an inhibition at 200 ppm [4] of no less than 80% and a pest or weed control at 200 ppm [5] of no less than 80%. For the same compound, the inhibition at 200 ppm [6] was no less than 80%, the inhibition at 200 ppm [7] was no less than 80% and the pest or weed control at 200 ppm (Pyrenophora teres) was no less than 80%. For the same compound, the inhibition at 200 ppm [8] was no less than 80%, the pest or weed control at 200 ppm [9] was no less than 80% and the inhibition at 200 ppm (Gaeumannomyces graminis) was no less than 80%.
For `C/C(=N\OCCCc1cccc(-c2cc(OC(C)C)cc(C)n2)n1)c1cccc(C)n1` [P.27], the pest or weed control at 200 ppm [1] was no less than 80%, the inhibition at 200 ppm (Pythium ultimum) was no less than 80% and the inhibition at 200 ppm [2] was no less than 80%. It also gave an inhibition at 200 ppm [3] of no less than 80%, an inhibition at 200 ppm [4] of no less than 80% and a pest or weed control at 200 ppm [5] of no less than 80%. The inhibition at 200 ppm [6] was no less than 80%, the inhibition at 200 ppm [7] was no less than 80% and the pest or weed control at 200 ppm (Pyrenophora teres) was no less than 80%. For the same compound, the inhibition at 200 ppm [8] was no less than 80%, the pest or weed control at 200 ppm [9] was no less than 80% and the pest or weed control at 200 ppm (Alternaria solani) was no less than 80%.
For `CCc1cc(O)c(C)c(-c2cccc(CCCO/N=C(\C)c3cccc(C)n3)n2)n1` [P.32], the melting point was 128 to 130 °C.
For `COc1cc(C)nc(-c2cccc(CCCO/N=C(\C)c3nc(C)cc(C)n3)n2)c1` [P.44], the pest or weed control at 200 ppm [1] was no less than 80%, the inhibition at 200 ppm (Pythium ultimum) was no less than 80% and the inhibition at 200 ppm [2] was no less than 80%. The inhibition at 200 ppm [3] was no less than 80%, the inhibition at 200 ppm [4] was no less than 80% and the pest or weed control at 200 ppm [5] was no less than 80%. It also gave an inhibition at 200 ppm [6] of no less than 80%, an inhibition at 200 ppm [7] of no less than 80% and a pest or weed control at 200 ppm (Pyrenophora teres) of no less than 80%. It also gave an inhibition at 200 ppm [8] of no less than 80%, a pest or weed control at 200 ppm [9] of no less than 80% and an inhibition at 200 ppm (Gaeumannomyces graminis) of no less than 80%. For the same compound, the pest or weed control at 200 ppm (Alternaria solani) was no less than 80%.
